Patent US10280170B2, “Substituted 4,5,6,7-tetrahydro-pyrazolo[1,5-a]pyrazine derivatives and 5,6,7,8-tetrahydro-4H-pyrazolo[1,5-a][1,4]diazepine derivatives as Ros1 inhibitors” (Janssen Pharmaceutica NV, priority 2014, dated 2019)
Like-named read-outs stand apart in the source and are kept apart here.

Experiments:
[1] = tested on: HCC78 non-small cell lung cancer cells; assay: HCC78 cell proliferation assay; assay type: cell-based; conditions: for EC50: Homo sapiens, HCC78, 96 h, read-out: HCC-78 PROL pEC50 (converted)
Description: HCC78 Cell Proliferation Assay
Approximately 1000 HCC78 non-small cell lung cancer cells in 180 μl of cell culture medium (RPMI-1640, 10% FBS, 2 mM L-Glutamine, 10 mM Hepes, 1 mM sodium pyruvate, 4.5 g/L glucose, 1.5 g/L sodium bicarbonate, 25 μg/ml Gentamycin) were seeded in each well of a 96-well polystyrene, tissue-culture treated plate and incubated at 37° C. and 5% CO2. After 24 hours, compounds were diluted in cell culture medium from which 20 μl was added to the wells containing cells and incubated for 4 days at 37° C. and 5% CO2. A 5 mg/ml solution of the tetrazolium dye MTT was prepared in PBS (phosphate-buffered saline) and 25 μl was added to each well. After 2 hours the medium was removed and replaced by 125 μL of 4/1 DMSO/glycine buffer (0.1M glycine, 0.1M NaCl, pH 10.5) before absorbance was determined at 538 nm.

[2] = target: T1, Ba/F3 cells containing Ros1 wild-type protein (Homo sapiens, UniProt P08922, cells depend on it, form not given); assay: Ba/F3-Ros1 cell proliferation assay, wild-type Ros1; assay type: cell-based, murine; conditions: without IL-3
T1 construct: The background only speaks of 'a number of different unrelated proteins' and names SLC34A2-ROS1 for HCC78 cells
Description: (§1) Ba/F3-Ros1 Cell Proliferation Assay
(§2) This assay was carried out with Ba/F3 cells containing three different versions of Ros1: the wild-type protein, protein with a mutation at the gatekeeper residue (L2026M), and protein with a mutation identified in a tumor from a patient that became resistant to crizotinib (Xalkori®) treatment (G2032R). Compounds were solubilized in 100% DMSO (dimethyl sulfoxide) and sprayed into polystyrene, tissue culture treated 384-well plates. A 50 μl volume of cell culture medium (phenol red free RPMI-1640, 10% FBS (fetal bovine serum), 2 mM L-Glutamine) containing 20000 Ba/F3-Ros1 cells was added to each well and the plates were placed in an incubator at 37° C. and 5% CO2. After 24 hours, 10 μl of Alamar Blue solution (0.5 mM K3Fe(CN)6, 0.5 mM K4Fe(CN)6, 0.15 mM Resazurin and 100 mM Phosphate Buffer) was added to the wells, incubated for 4 hours at 37° C. and 5% CO2 before RFU's (Relative Fluorescence Units) (ex. 540 nm., em. 590 nm.) were measured in a fluorescence plate reader.

[3] = target: Ba/F3 cells containing Ros1 with a mutation at the gatekeeper residue (L2026M) (Homo sapiens, UniProt P08922, L2026M, cells depend on it, form not given); assay: Ba/F3-Ros1 cell proliferation assay, L2026M gatekeeper mutant; assay type: cell-based, murine; conditions: without IL-3
Description: as §1, §2

Ros1 enzyme = target: T2, Ros1 enzyme (Homo sapiens, UniProt P08922); assay: Ros1 enzymatic assay; assay type: biochemical; conditions: Ros1 enzymatic assay; read-out: ROS1 pIC50 (converted)
T2 construct: 0.5 μg/ml Ros1 enzyme
Description: Compounds were spotted onto white 384-well Proxiplate plus plates (Perkin Elmer) to which 5 μl of enzyme mix (0.5 μg/ml Ros1 enzyme, 50 mM Tris-HCl pH7.5, 1 mM EGTA, 10 mM MgCl2, 0.01% Tween-20) and 5 μl of substrate mix (6 μg/ml IRS-Tide [American Peptide Company], 20 μM ATP, 13.33 μCi/ml ATP (adenosine 5′-triphosphate) P^33, 50 mM Tris-HCl pH7.5, 1 mM EGTA (ethylene glycol-bis(2-aminoethylether)-N,N,N′,N′-tetraacetic acid), 10 mM MgCl2, 0.01% Tween-20) were added. After incubation for 120 minutes at room temperature, 10 μl of stop reaction buffer (5 mM EDTA, 50 μM ATP, 0.1% BSA (bovine serum albumin), 0.1% Triton X-100, 50 mM Tris-HCl pH7.5, 1 mM EGTA, 10 mM MgCl2, 0.01% Tween-20) containing 2 mg/ml streptavidin coupled polystyrene imaging beads (Amersham Biosciences) was added and incubated for 15 minutes at room temperature. Plates were centrifuged for 3 minutes at 1500 rpm and signals detected in a LEADseeker imaging system (GE).

[4] = tested on: Ba/F3 cells containing Ros1 wild-type protein + IL-3; assay: Ba/F3-Ros1 cell proliferation counter-screen, wild-type protein in the presence of 10 ng/ml murine IL-3; assay type: cell-based; conditions: Mus musculus, BaF3, 24 h, read-out: BaF3-ROS1 + IL3 pIC50 (converted)
Description: as §2
As a counter-screen the same experiment was performed for the wild-type protein in the presence of 10 ng/ml murine IL-3.

[5] = counter-screen, wild-type, 10 ng/ml murine IL-3

Chain of Ba/F3 cells containing Ros1 with a mutation at the gatekeeper residue (L2026M) (P08922 whole entry L2026M, form open): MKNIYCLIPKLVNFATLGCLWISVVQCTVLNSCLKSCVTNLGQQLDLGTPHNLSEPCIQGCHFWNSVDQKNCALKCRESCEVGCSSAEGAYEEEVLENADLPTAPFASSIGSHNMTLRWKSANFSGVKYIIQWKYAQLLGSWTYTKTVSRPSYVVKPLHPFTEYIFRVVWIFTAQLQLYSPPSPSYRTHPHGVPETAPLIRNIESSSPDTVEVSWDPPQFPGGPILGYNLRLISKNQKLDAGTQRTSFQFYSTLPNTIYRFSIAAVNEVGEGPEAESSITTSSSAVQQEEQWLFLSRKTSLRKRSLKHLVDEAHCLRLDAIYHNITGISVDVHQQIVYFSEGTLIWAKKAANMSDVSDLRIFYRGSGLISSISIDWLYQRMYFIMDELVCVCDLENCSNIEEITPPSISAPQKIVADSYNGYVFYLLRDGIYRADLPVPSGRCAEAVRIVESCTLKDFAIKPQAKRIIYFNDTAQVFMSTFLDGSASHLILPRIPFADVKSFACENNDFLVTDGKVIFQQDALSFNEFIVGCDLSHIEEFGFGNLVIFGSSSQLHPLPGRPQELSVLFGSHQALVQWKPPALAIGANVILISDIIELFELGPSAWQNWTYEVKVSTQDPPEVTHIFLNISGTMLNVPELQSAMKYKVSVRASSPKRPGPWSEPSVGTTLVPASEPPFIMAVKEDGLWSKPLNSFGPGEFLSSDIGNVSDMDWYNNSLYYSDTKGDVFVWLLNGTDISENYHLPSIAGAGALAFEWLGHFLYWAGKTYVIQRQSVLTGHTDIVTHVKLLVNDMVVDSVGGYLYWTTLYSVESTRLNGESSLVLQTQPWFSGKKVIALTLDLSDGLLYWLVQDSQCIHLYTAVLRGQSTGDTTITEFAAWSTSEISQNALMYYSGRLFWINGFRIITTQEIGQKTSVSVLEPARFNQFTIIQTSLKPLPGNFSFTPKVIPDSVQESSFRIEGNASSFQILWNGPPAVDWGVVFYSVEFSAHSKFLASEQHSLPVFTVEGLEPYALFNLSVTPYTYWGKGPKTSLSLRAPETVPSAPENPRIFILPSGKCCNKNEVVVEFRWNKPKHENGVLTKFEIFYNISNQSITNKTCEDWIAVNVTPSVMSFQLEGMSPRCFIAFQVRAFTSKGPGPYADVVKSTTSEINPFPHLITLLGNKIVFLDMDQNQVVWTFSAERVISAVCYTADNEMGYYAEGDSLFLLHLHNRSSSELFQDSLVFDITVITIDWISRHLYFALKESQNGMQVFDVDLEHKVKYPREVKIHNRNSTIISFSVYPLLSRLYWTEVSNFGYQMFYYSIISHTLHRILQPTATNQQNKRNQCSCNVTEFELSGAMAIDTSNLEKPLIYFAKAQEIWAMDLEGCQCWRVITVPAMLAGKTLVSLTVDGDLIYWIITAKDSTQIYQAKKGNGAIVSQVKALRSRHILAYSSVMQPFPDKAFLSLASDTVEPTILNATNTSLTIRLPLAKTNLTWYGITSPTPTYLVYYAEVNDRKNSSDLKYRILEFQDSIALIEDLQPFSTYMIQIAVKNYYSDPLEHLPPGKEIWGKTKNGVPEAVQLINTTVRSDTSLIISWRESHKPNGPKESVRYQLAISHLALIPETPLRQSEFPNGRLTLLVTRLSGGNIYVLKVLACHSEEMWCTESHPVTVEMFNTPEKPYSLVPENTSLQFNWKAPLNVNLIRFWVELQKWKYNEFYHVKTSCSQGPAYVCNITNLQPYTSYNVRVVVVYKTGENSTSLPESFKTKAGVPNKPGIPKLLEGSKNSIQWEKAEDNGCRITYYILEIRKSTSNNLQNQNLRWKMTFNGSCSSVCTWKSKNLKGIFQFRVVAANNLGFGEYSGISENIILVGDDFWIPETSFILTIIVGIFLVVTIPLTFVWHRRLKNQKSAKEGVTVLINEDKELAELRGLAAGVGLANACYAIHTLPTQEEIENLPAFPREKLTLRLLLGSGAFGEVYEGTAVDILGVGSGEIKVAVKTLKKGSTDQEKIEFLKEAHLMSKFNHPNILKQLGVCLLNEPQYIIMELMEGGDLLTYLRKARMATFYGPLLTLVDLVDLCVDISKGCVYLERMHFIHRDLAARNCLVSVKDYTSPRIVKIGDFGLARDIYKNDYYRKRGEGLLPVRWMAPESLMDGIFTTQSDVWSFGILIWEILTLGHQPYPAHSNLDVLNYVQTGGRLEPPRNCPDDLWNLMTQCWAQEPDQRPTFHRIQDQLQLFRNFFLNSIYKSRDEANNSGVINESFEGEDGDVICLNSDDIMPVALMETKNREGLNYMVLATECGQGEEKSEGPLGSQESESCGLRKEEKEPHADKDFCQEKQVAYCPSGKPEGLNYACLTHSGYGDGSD
T1 sequence (P08922 whole entry, stated change not applied): as the sequence (P08922 whole entry L2026M, form open) above, with M2026L counted along it
T2 sequence (P08922 28-2347): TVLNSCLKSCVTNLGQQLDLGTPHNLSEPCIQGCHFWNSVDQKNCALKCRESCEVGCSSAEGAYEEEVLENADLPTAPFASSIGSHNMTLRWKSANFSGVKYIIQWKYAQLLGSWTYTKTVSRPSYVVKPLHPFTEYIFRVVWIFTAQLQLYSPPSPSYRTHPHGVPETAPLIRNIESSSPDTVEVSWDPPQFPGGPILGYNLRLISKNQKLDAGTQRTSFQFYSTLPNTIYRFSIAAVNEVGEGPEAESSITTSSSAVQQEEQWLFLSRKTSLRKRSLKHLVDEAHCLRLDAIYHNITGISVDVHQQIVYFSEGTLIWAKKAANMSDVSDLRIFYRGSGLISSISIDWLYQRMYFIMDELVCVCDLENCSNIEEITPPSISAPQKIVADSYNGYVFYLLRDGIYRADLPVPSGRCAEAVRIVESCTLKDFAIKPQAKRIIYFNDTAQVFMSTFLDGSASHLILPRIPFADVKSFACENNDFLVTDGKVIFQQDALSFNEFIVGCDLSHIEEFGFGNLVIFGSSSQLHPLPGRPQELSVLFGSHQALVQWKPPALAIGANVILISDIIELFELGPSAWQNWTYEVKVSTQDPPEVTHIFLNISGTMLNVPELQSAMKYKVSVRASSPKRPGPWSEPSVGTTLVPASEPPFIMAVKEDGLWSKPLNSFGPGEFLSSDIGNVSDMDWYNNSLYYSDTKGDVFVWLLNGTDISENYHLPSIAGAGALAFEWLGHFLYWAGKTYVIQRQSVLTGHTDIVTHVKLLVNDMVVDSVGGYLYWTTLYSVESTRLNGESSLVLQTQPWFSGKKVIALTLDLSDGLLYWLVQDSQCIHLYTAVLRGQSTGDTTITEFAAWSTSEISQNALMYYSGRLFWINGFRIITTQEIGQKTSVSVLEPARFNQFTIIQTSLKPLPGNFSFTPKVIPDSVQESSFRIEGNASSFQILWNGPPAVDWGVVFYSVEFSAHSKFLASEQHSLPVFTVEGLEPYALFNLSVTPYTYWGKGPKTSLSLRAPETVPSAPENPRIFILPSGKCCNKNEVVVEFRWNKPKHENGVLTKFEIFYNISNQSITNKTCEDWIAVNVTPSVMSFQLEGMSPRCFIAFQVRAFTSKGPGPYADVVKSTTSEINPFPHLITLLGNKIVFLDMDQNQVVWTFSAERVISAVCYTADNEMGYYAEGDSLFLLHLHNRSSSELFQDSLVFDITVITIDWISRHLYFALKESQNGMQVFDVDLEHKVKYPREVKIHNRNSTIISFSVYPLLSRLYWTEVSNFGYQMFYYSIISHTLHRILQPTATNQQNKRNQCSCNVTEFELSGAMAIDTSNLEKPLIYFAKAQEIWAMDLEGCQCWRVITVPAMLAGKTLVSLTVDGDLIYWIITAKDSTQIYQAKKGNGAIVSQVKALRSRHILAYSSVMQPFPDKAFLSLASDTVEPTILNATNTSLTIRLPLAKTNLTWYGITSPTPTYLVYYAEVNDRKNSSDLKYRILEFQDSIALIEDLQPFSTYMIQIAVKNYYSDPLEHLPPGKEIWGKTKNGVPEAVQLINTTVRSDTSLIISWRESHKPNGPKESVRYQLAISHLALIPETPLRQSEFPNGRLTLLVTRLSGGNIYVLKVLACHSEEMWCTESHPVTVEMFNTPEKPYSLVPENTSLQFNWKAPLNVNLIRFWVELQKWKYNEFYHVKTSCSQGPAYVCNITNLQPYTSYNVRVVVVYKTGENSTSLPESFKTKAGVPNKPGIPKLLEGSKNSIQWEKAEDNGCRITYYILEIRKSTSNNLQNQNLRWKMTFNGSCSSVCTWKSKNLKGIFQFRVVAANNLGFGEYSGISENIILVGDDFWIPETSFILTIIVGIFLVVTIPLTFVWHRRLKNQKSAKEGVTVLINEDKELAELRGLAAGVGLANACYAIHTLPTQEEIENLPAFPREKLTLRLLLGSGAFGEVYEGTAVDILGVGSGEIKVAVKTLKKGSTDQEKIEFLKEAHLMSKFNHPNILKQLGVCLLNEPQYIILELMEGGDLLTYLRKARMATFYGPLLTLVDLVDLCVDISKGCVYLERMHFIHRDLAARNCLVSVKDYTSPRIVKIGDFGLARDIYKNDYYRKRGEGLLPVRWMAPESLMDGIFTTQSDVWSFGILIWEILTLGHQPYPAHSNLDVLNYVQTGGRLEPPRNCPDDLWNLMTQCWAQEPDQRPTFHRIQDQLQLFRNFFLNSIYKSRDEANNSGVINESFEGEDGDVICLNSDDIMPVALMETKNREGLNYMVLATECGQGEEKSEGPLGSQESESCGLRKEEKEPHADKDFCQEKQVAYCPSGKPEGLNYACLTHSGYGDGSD

Row | SMILES | EC50 [1] [nM] | BaF3-ROS1-IL3 pIC50 [2] | Ba/F3 Ros1 L2026M (-IL-3) pIC50 [3] | IC50 (Ros1 enzyme) [nM] | CC50 [4] [nM] | EC50 ([1]; HCC78 cells, 4 days, MTT) [nM] | CC50 [4, 5] [nM] | HCC-78 PROL pEC50 ([1]; HCC78 cells, 4 days, MTT) | melting point [°C]
1 | CC(C)c1ccc(COc2ccc(-c3c(-c4ccncc4)nn4c3CN(CCO)CC4)c(F)c2)cc1 [Compound 187] | 100 | 7.2 | 6.4 | 79.4 | > 10000 | – | – | – | –
2 | CC(C)c1ccc(C(CO)Oc2ccc(-c3c(-c4ccncc4)nn4c3C(=O)NCC4)cc2)cc1 (stereo not shown) [Compound 146] | – | 6.2 | 7.6 | 2000 | – | 3980 | > 10000 | – | –
3 | CNC(=O)C(Oc1ccc(-c2c(-c3ccncc3)nn3c2C(=O)NCC3)cc1)c1ccc(C(C)C)cc1 (stereo not shown) [Compound 217] | – | 6.3 | 6.0 | 398 | – | 3160 | > 10000 | – | –
4 | O=C1c2c(-c3ccc(OCc4ccc(C5CC5)nc4)cc3)c(-c3ccncc3)nn2CCN1CC(O)CO (stereo not shown) [Compound 140] | – | 6.4 | 5.8 | 251 | – | 2000 | > 10000 | – | –
5 | O=C1c2c(-c3ccc(OCc4ccc(C5CC5)nc4)cc3F)c(-c3ccncc3)nn2CCN1CCO [Compound 207] | 501 | 7.1 | 6.5 | 20 | > 10000 | – | – | – | –
6 | CC(C)c1ccc(C(C)Oc2ccc(-c3c(-c4ccncc4)nn4c3C(=O)N(CCO)CC4)cc2)cc1 (stereo not shown) [Compound 145] | – | 5.8 | 5.1 | 3160 | – | – | – | <5.5 | –
7 | CC(C)c1ccc(COc2ccc(-c3c(-c4ccncc4)nn4c3C(=O)NCC4)cc2)cc1CN [Compound 86] | – | 7.2 | 6.9 | 10 | – | 501 | > 10000 | – | –
8 | Cc1cc(-c2c(-c3ccncc3)nn3c2C(=O)N(CCO)CC3)ccc1OCc1ccc(C(C)C)cc1 [Compound 31] | 6310 | 6.3 | 5.9 | 1580 | > 10000 | – | – | – | –
9 | CC(C)c1ccc(COc2ccc(-c3c(-c4ccncc4)nn4c3C(=O)N(CCCN)CC4)cc2)cc1 [Compound 58] | – | 7.3 | 7.0 | 20 | – | 1000 | 6310 | – | –
10 | CNC(=O)CN1CCn2nc(-c3ccncn3)c(-c3ccc(OCc4ccc(C(C)C)cc4)cc3)c2C1=O [Compound 164] | – | 7.0 | 6.7 | 158 | – | 794 | > 10000 | – | –
11 | CNCCN1CCn2nc(-c3ccncc3)c(-c3ccc(OCc4ccc(C(C)C)cc4)cc3)c2C1=O [Compound 60] | – | 6.6 | 6.2 | 63.1 | – | 631 | 3980 | – | –
12 | CC(C)c1ccc(COc2ccc(-c3c(-c4ccncc4)nn4c3C(=O)NCC4)cc2)cc1CC(O)CO (stereo not shown) [Compound 91] | 63.1 | 7.3 | 6.6 | 31.6 | > 10000 | – | – | – | –
13 | CC(C)c1ccc(COc2ccc(-c3c(-c4ccncc4)nn4c3C(=O)N(CCNCC(F)(F)F)CC4)cc2)cc1 [Compound 62] | 501 | 7.0 | 6.6 | 200 | > 10000 | – | – | – | –
14 | CC(C)c1ccc(COc2cc(F)c(-c3c(-c4ccncc4)nn4c3C(=O)N(CCO)CC4)cc2F)cc1 [Compound 203] | 10 | 8.2 | 8.0 | 3.98 | > 10000 | – | – | – | –
15 | [2H]C([2H])(O)C([2H])([2H])N1CCn2nc(-c3ccncc3)c(-c3ccc(OCc4ccc(C(C)C)cc4)cc3)c2C1=O [Compound 67] | – | 7.9 | 7.1 | 25.1 | > 10000 | – | – | – | 179
16 | CC(C)c1ccc(COc2ccc(-c3c(-c4ccncc4)nn4c3C(=O)N(CCN(C)C)CC4)cc2)cc1 [Compound 61] | 631 | 6.3 | 5.9 | – | > 10000 | – | – | – | –
17 | CC(C)c1ccc(COc2ccc(-c3c(-c4ccncc4)nn4c3C(=O)N(CCO)CC4)cc2)cc1CCO [Compound 83] | – | 7.6 | 7.2 | 20 | > 10000 | – | – | – | 176
18 | O=C1c2c(-c3ccc(OCc4ccc(C5CC5)nc4)cc3)c(-c3ccncn3)nn2CCN1CCO [Compound 169] | – | 6.2 | 5.6 | 1000 | > 10000 | – | – | – | 143
19 | CC(C)c1ccc(COc2ccc(-c3c(-c4ccncc4)nn4c3C(=O)N(C)CC4)cn2)cc1 [Compound 211] | – | 7.3 | 7.3 | 31.6 | – | – | > 10000 | – | 57
20 | CC(C)c1ccc(COc2ccc(-c3c(-c4ccncc4)nn4c3C(=O)N(CCS(C)(=O)=O)CC4)cn2)cc1 [Compound 213] | – | 7.0 | 6.4 | 100 | – | – | > 10000 | – | 200
21 | CC(C)c1ccc(COc2ccc(-c3c(-c4ccncc4)nn4c3C(=O)N(CCO)CC4)cc2)c(F)c1F [Compound 100] | – | 6.9 | 6.3 | 200 | > 10000 | – | – | – | 172
